SMILES strings stand for the structures.

One experiment relates to p-eNOS. It is filed as cell-based.
The test system of the next experiment is CSE. It is filed as cell-based.
A further experiment concerns sulfide. The experiment in a line: Single COVID-19 case study: plasma sulfide (monobromobimane method). To be noted: single COVID-19 subject, 14 days post-treatment. In kind it is in vivo, human.
The subject of another experiment is C-reactive protein (CRP). In words: Single COVID-19 case study: CRP levels. Conditions: single COVID-19 subject, following remdesivir for 5 days; 1.35 and 1.77 mg/dL during infection; normal range 0.3-1.0 mg/dL.
Another experiment concerns Total NO. The experiment in a line: Single COVID-19 case study: plasma total NO (ozone-based chemiluminescence). Conditions: single COVID-19 subject, 280 nM during infection, 400 nM baseline.

Take `C=CCSSSCC=C` [DATS, diallyl trisulfide]: the “restoration of p-eNOS protein expression” value in the experiment on p-eNOS is “two-fold”. Besides, the “restoration of CSE protein expression” value in the experiment on CSE is on record as “two-fold”.
`CCC(CC)COC(=O)[C@H](C)N[P@](=O)(OC[C@H]1O[C@@](C#N)(c2ccc3c(N)ncnn23)[C@H](O)[C@@H]1O)Oc1ccccc1` [remdesivir] showed a sulfide level with sulfide of 1.447 µM. Moreover, in the experiment with C-reactive protein (CRP), the CRP level was determined as 0.78 mg/dL. In addition, the results for the “Total NO level” value in the experiment with Total NO (5 days post-treatment) and in the experiment with Total NO (14 days post-treatment) were 200 nM and 280 nM, respectively.

The values are drawn from patent publication US20220273702A1, “HYDROGEN SULFIDE AND NITRIC OXIDE THERAPY FOR COVID-19 INFECTION” (Board of Supervisors of Louisiana State University and …, priority 2021, published 2022).
